Experimental findings from ChEMBL document CHEMBL1141641, “SAR studies of capsazepinoid bronchodilators. Part 1: The importance of the catechol moiety and aspects of the B-ring structure” (Bioorg Med Chem, 2008) are described below.

This assay is filed under the species Homo sapiens. Nature of the assay: Bronchodilation activity against leukotriene D4-induced constriction in human lung small airways assessed as remaining contraction at 10 uM after 1.5 hrs relative to control. The class given is functional.
As for `CN(Cc1ccc(O)c(O)c1)C(=S)NCCc1ccc(Cl)cc1`, the Remaining contraction was 69%.

For `Oc1ccc2c(c1)CCN(C(=S)NCCc1ccc(Cl)cc1)C2`, the Remaining contraction was found to be 52%.

As to `Oc1cccc2c1CCN(C(=S)NCCc1ccc(Cl)cc1)C2`, the Remaining contraction amounted to 48%.

On to `Oc1ccc2c(c1)CN(C(=S)NCCc1ccc(Cl)cc1)C2`, for which the Remaining contraction amounted to 41%.

Turning to `Oc1cccc2c1CN(C(=S)NCCc1ccc(Cl)cc1)C2`, the Remaining contraction was determined as 82%.

Regarding `Oc1ccc2c(c1O)CCN(C(=S)NCCc1ccc(Cl)cc1)C2`, the Remaining contraction amounted to 63%.

Turning to `Oc1cc2c(cc1O)CN(C(=S)NCCc1ccc(Cl)cc1)CCC2`, the Remaining contraction turned out to be 55%.

Regarding `Oc1cc2c(cc1O)CN(C(=S)NCCc1ccc(Cl)cc1)CC2`, the Remaining contraction came to 36%.

On to `Oc1ccc(CCNC(=S)NCCc2ccc(Cl)cc2)cc1O`, for which the Remaining contraction amounted to 72%.

With `Oc1ccc2c(c1)CN(C(=S)NCCc1ccc(Cl)cc1)CC2`, the Remaining contraction was 75%.

On to `Oc1cccc2c1CN(C(=S)NCCc1ccc(Cl)cc1)CC2`, for which the Remaining contraction came out at 73%.

With `Oc1cc2c(cc1O)CN(C(=S)NCCc1ccc(Cl)cc1)C2`, the Remaining contraction was 56%.

Regarding `Oc1ccc2c(c1)CCCN(C(=S)NCCc1ccc(Cl)cc1)C2`, the Remaining contraction amounted to 53%.

Regarding `Oc1ccc(CNC(=S)NCCc2ccc(Cl)cc2)cc1O`, the Remaining contraction came to 69%.

For the molecule `Oc1ccc2c(c1)CN(C(=S)NCCc1ccc(Cl)cc1)CCC2`, the Remaining contraction is 40%.

Regarding `Oc1cc2c(cc1O)C(Cc1ccccc1)N(C(=S)NCCc1ccc(Cl)cc1)CC2` (centres undefined), the Remaining contraction is 79%.

Consider `CC1c2cc(O)c(O)cc2CCN1C(=S)NCCc1ccc(Cl)cc1` (centres undefined), for which the Remaining contraction was 58%.

With `CC1Cc2cc(O)c(O)cc2CN1C(=S)NCCc1ccc(Cl)cc1` (centres undefined), the Remaining contraction stood at 70%.

`Oc1cc2c(cc1O)CCN(C(=S)NCCc1ccc(Cl)cc1)CC2`: the Remaining contraction is 54%.
